Among the data in ChEMBL document CHEMBL4507319 (2021) are IC50, residual activity and inhibition values, retold here.

Test [1] concerns the target 5'-AMP-activated protein kinase catalytic subunit alpha-1 (Homo sapiens, UniProt Q13131). Put plainly: Biochemical PRKAA1 assay with 2 mM ATP (Bayer in house).
For test [2], the target named is AP2-associated protein kinase 1 (Homo sapiens) (UniProt Q2M2I8). The note with it: Compound concentration 1000.0 nM.
The test system of test [3] is Tyrosine-protein kinase ABL1 (Homo sapiens), P00519 [Q252H]. The note with it: Compound concentration 1000.0 nM.
Test [4] relates to ALK tyrosine kinase receptor (Homo sapiens), Q9UM73 [C1156Y]. The note with it: Compound concentration 1000.0 nM.
For test [5], the target named is Mitogen-activated protein kinase kinase kinase 6 (Homo sapiens) (UniProt O95382). The note with it: Compound concentration 1000.0 nM.
Test [6] addresses Calcium/calmodulin-dependent protein kinase kinase 2 (Homo sapiens) (UniProt Q96RR4). The note with it: Compound concentration 1000.0 nM.
Test [7] deals with Dual specificity protein kinase CLK1 (Homo sapiens) (UniProt P49759). The note with it: Compound concentration 1000.0 nM.
For test [8], the target named is Tyrosine-protein kinase Fer (Homo sapiens) (UniProt P16591). The note with it: Compound concentration 1000.0 nM.
Test [9] concerns the target Dual specificity mitogen-activated protein kinase kinase 4 (Homo sapiens) (UniProt P45985). The note with it: Compound concentration 1000.0 nM.
Test [10] deals with Serine/threonine-protein kinase Nek4 (Homo sapiens) (UniProt P51957). The note with it: Compound concentration 1000.0 nM.
Test [11] concerns Phosphatidylinositol 4,5-bisphosphate 3-kinase catalytic subunit alpha isoform (Homo sapiens), P42336 [I800L]. The note with it: Compound concentration 1000.0 nM.
In test [12] the target is Phosphatidylinositol 4-phosphate 5-kinase type-1 alpha (Homo sapiens) (UniProt Q99755). The note with it: Compound concentration 1000.0 nM.
Test [13] deals with T1, Serine/threonine-protein kinase Sgk3 (Homo sapiens) (UniProt Q96BR1).
T1 sequence (whole entry): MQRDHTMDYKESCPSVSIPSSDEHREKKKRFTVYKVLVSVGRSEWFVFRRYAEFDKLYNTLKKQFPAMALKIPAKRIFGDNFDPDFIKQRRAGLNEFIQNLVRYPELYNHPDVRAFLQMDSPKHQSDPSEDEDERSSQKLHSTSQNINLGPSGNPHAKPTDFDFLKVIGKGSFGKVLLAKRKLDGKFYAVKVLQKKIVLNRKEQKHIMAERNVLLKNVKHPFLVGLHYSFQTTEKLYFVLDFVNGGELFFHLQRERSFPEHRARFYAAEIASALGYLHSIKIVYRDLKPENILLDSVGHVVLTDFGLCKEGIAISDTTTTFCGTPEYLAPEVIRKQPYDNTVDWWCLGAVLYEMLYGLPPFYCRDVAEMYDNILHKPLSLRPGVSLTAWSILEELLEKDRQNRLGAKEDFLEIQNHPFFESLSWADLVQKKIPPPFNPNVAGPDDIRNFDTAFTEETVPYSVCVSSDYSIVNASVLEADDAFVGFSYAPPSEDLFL
The note with it: Compound concentration 1000.0 nM.

Test [14] has as its target T2, Tyrosine-protein kinase receptor TYRO3 (Homo sapiens) (UniProt Q06418).
T2 sequence (whole entry): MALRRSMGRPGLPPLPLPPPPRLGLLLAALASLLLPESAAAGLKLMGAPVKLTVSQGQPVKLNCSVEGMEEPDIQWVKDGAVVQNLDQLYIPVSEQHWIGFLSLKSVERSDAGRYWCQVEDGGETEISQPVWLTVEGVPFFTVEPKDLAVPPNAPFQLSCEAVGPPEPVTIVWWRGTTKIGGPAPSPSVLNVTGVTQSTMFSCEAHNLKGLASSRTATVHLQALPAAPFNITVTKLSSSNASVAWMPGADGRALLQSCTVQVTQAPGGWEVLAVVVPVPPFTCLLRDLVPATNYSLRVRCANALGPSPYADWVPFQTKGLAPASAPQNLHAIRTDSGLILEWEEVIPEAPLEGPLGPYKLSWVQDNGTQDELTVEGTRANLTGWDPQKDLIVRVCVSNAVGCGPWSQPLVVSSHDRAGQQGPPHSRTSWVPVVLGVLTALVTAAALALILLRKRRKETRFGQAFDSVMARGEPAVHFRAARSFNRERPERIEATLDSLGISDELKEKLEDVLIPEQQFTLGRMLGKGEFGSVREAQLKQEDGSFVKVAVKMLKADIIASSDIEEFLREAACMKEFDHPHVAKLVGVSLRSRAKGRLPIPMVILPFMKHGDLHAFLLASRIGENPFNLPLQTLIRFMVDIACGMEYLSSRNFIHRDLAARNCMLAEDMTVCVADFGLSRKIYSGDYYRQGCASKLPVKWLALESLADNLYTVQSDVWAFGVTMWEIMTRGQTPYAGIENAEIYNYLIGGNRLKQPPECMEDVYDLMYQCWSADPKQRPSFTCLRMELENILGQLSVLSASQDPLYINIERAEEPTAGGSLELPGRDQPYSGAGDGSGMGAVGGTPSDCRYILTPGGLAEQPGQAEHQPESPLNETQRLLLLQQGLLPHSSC
The note with it: Compound concentration 1000.0 nM.

Test [15] deals with 5-hydroxytryptamine receptor 5A (Homo sapiens) (UniProt P47898). The note with it: Compound concentration 10.0 uM.
The target of test [16] is D(3) dopamine receptor (Homo sapiens) (UniProt P35462). The note with it: Compound concentration 10.0 uM.

The source made the active and inactive calls. The rule behind the calls is not given here.

Chain of ALK tyrosine kinase receptor (Homo sapiens), Q9UM73 [C1156Y] (Q9UM73 whole entry C1156Y, looked up): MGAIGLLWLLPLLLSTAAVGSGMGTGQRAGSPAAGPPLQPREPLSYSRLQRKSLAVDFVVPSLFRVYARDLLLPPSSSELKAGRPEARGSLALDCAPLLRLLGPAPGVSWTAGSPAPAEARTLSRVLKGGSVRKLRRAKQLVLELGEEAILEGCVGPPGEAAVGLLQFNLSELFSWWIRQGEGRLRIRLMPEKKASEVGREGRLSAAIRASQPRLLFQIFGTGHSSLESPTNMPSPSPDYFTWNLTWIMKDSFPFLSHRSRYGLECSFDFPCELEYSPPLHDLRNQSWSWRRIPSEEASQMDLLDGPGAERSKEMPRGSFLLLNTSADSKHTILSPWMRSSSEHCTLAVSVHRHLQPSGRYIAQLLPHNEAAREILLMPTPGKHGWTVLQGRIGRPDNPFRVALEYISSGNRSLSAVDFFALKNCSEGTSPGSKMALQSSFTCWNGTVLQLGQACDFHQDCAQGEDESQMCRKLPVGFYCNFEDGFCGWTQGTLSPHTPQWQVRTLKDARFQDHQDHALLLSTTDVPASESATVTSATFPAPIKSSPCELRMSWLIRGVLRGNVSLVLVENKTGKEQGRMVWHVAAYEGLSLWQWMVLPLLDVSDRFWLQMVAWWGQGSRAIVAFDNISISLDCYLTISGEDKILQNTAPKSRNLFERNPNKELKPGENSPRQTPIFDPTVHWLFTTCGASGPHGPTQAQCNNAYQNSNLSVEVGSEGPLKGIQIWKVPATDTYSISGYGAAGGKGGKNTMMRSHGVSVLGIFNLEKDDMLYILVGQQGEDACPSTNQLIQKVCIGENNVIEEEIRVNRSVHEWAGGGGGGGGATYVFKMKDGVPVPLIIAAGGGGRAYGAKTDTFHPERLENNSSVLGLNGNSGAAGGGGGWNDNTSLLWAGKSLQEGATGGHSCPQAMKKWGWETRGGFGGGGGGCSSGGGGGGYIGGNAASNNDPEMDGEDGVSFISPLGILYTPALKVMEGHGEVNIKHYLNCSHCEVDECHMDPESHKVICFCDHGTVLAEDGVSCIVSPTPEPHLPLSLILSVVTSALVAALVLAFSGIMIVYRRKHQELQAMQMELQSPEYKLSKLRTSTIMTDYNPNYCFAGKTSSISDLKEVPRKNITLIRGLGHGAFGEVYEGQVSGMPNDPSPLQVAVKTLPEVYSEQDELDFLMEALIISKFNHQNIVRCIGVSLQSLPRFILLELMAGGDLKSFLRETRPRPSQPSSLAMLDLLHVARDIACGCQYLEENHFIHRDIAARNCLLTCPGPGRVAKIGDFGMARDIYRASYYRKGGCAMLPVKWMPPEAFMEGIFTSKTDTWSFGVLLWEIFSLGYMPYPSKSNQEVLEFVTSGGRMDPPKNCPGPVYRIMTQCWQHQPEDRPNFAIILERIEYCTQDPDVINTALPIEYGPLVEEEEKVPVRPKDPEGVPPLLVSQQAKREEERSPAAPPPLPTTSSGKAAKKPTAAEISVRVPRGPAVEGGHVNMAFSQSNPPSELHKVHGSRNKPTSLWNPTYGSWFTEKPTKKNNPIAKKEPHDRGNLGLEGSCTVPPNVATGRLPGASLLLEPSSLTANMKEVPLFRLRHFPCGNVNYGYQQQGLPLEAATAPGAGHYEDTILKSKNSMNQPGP
Chain of 5'-AMP-activated protein kinase catalytic subunit alpha-1 (Q13131 whole entry): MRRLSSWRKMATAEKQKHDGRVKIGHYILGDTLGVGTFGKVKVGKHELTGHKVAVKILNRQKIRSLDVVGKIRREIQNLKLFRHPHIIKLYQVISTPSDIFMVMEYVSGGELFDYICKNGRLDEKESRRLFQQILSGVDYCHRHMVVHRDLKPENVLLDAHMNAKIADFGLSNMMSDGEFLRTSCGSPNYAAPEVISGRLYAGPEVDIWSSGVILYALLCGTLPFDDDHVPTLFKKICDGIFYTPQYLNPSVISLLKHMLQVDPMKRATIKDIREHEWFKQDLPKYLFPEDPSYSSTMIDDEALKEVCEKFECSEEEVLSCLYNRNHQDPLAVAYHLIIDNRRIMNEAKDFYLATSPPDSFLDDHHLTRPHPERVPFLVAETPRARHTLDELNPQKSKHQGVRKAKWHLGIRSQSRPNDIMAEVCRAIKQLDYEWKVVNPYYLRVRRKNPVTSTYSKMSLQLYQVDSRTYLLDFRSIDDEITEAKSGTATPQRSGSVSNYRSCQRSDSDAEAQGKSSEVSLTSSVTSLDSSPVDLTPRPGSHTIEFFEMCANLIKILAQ
Chain of Phosphatidylinositol 4,5-bisphosphate 3-kinase catalytic subunit alpha isoform (Homo sapiens), P42336 [I800L] (P42336 whole entry I800L, canonical isoform): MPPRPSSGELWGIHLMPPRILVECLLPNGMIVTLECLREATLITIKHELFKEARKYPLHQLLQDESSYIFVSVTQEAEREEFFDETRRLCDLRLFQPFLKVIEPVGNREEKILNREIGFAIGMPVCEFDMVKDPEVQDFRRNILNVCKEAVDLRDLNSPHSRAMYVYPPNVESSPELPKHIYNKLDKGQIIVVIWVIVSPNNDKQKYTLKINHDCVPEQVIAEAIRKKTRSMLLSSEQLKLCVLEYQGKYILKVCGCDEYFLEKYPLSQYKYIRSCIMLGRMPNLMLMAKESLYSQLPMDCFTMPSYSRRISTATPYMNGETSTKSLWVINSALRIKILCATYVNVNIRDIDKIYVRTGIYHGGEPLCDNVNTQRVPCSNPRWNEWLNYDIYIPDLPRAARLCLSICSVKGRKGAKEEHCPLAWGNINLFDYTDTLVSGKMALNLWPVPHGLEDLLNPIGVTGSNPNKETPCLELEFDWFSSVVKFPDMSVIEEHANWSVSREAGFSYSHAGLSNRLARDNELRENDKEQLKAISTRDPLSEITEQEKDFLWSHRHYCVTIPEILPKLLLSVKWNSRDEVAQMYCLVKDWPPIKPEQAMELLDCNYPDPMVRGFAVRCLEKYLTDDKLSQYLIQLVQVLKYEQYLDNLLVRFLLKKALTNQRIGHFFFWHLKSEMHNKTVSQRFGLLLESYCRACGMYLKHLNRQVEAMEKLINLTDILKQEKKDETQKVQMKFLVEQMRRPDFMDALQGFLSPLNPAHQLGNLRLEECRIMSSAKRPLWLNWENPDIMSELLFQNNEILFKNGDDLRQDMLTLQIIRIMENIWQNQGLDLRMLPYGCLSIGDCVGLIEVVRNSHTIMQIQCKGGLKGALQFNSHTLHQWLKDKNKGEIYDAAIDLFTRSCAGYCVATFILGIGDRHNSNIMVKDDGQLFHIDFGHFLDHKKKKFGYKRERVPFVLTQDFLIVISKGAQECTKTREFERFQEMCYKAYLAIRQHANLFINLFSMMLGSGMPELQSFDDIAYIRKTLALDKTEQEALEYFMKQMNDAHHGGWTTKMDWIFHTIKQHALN
Chain of Dual specificity protein kinase CLK1 (Homo sapiens) (P49759 whole entry, looked up): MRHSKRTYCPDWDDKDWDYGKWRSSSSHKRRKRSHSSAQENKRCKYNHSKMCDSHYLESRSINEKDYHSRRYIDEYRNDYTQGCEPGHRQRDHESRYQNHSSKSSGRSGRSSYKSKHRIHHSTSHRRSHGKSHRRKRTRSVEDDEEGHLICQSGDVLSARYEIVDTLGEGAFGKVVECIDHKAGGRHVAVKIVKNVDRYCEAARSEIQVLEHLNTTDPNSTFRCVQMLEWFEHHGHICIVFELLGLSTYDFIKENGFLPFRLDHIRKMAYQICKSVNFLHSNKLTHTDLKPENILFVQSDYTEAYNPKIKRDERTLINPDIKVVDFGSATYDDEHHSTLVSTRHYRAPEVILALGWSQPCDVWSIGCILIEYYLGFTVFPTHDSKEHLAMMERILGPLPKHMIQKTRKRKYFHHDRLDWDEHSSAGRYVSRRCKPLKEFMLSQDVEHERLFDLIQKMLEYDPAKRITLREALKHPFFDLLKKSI
Chain of Phosphatidylinositol 4-phosphate 5-kinase type-1 alpha (Homo sapiens) (Q99755 whole entry): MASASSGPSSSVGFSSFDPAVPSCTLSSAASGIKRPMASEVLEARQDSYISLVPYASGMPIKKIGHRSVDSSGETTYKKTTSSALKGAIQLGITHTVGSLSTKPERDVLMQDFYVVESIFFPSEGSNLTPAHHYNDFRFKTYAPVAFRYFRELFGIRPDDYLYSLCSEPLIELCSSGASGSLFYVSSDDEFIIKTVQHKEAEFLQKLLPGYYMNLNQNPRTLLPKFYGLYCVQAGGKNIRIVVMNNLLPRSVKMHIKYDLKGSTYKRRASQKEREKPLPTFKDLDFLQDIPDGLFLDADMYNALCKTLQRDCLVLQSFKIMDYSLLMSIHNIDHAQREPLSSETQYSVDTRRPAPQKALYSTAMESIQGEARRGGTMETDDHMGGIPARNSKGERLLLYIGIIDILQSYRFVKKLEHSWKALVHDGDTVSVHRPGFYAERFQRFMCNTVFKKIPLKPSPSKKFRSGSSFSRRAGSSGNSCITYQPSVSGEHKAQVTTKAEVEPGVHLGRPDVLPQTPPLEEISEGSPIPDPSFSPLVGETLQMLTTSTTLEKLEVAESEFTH
Chain of 5-hydroxytryptamine receptor 5A (Homo sapiens) (P47898 whole entry): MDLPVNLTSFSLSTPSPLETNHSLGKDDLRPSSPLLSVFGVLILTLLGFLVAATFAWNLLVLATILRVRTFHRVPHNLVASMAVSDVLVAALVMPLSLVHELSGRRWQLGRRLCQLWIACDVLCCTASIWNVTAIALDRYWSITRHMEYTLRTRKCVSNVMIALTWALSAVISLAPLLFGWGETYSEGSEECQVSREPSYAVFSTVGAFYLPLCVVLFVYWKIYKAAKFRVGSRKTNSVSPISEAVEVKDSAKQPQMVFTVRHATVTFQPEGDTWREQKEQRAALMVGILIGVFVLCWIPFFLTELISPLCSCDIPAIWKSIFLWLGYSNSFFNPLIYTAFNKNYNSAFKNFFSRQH
Chain of D(3) dopamine receptor (Homo sapiens) (P35462 whole entry): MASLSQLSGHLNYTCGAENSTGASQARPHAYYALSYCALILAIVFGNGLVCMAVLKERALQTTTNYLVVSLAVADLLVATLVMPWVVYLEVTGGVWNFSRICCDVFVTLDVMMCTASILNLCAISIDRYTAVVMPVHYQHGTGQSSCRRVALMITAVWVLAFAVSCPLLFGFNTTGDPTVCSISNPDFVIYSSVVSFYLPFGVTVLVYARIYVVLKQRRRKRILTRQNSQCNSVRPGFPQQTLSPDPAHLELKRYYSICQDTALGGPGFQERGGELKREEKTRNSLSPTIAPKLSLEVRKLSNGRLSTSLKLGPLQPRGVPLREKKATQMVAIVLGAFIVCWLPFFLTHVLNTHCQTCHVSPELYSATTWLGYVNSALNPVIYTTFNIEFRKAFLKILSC

On to `CC1=C(C#N)C(c2ccc3c(c2)c(NC(=O)c2ccccc2C)nn3C)C(C#N)=C(C)N1` [BAY-974], for which, in test [1], the IC50 (in general, the point on the concentration scale where inhibition reaches its midpoint) was > 20 µM (not active). Besides, the residual activity is 90% in test [2]; 100% in test [3]; 96% in test [4]; 71% in [5]; 100% in test [6]; 87% in [7]. The residual activity in test [8] was 88%; in test [9] it was 79%; in [10] it was 100%; in test [11], 93%; in test [12], 100%; in test [13], 95%. The residual activity in test [14] is 100%. Moreover, the inhibition (in general, the drop in the measured response relative to a control, in per cent) in test [15] is 0.04%; in [16], 2.48%.
With `CCc1ccccc1C(=O)Nc1n[nH]c2c(C)c(F)c(C3C(C#N)=C(C)N(C)C(C)=C3C#N)cc12` [BAY-3827], in [1], the IC50 is 0.015 µM (active). In addition, the residual activity in [2] is 81%; in [3], 82%; in test [4], 100%; in [5], 100%; in test [6], 95%; in test [7] it was 84%. The residual activity in test [8] is 90%; in test [9] it was 100%; in test [10], 100%; in test [11] it was 100%; in test [12], 100%; in test [13], 91%. In test [14], the residual activity is 100%. Moreover, the inhibition in test [15] was 19.9%; in test [16], 10.4%.
